Target: T1, Renin (Homo sapiens, UniProt P00797)
T1 sequence (P00797 whole entry): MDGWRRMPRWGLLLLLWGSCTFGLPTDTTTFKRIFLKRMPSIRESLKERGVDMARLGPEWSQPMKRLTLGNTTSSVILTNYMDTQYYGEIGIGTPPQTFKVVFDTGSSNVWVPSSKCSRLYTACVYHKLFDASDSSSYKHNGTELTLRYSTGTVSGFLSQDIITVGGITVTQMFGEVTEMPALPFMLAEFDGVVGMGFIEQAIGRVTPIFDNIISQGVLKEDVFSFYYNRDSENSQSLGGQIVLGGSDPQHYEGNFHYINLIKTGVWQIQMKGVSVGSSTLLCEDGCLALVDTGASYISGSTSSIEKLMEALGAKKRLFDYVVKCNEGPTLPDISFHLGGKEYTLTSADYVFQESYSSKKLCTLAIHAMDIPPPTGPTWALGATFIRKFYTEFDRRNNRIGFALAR
Assay: FRET Assay: Inhibition activity of renin using FRET assay.

| Structure (SMILES) | IC50 [nM] |
| --- | --- |
| CCOC[C@@H](CC(C)C)NC(=O)[C@@H]1CNC[C@H](C(=O)N(c2cc(OCC)c(CC)cn2)C2CC2)C1 | 0.6 |
| CCOC[C@H](NC(=O)[C@@H]1CNC[C@H](C(=O)N(c2ccc(C(C)C)cn2)C2CC2)C1)C(C)C | 0.9 |
| CCOC[C@@H](CC(C)C)NC(=O)[C@@H]1CNC[C@H](C(=O)N(c2cc(OCCCOC)c(C(C)C)cn2)C2CC2)[C@@H]1O | 0.4 |
| CCOC[C@@H](CC(C)C)NC(=O)[C@@H]1CNC[C@H](C(=O)N(CC(C)C)c2cc(OC)c(C(C)C)cn2)C1 | 0.8 |
| CCOC[C@@H](CC(C)C)NC(=O)[C@@H]1CNC[C@H](C(=O)N(c2ccc(C(C)C)cn2)C2CC2)[C@@H]1O | 2 |
| CCOC[C@@H](CC(C)C)NC(=O)[C@@H]1CNC[C@H](C(=O)N(c2ccc(C(C)(C)OC)cn2)C2CC2)[C@@H]1O | 2 |
| CCOC[C@@H](CC(C)C)NC(=O)[C@@H]1CNC[C@H](C(=O)N(c2cc(OC)c(C(C)C)cn2)C2CC2)C1 | 0.9 |
| CCOC[C@@H](NC(=O)[C@@H]1CNC[C@H](C(=O)N(c2cc(OC)c(C(C)C)cn2)C2CC2)C1)C1CCCCC1 | 0.3 |

Source: ChEMBL document CHEMBL3639303, “Organic compounds” (2013)
